Data: the NIST ThermoML archive (doi:10.1016/j.fluid.2009.09.015)

Tests used:
[1] = Liquid; for mass density: 298 K, Vibrating tube method; for mass density / viscosity: 101.33 kPa; for viscosity: 298.15 K, Capillary tube (Ostwald / Ubbelohde) method; for Normal boiling temperature: Ebulliometric method (Recirculating still)
[2] = refractive index (Na D-line) (dimensionless); settings: 298.15 K; 101.33 kPa; Liquid; ATAGO RX-5000 refractometer with Hero Therm thermostat
[3] = xn = mol fraction of the nth substance listed; settings: 298.15 K, 101 kPa, Liquid; for viscosity: Capillary tube (Ostwald / Ubbelohde) method; for mass density: Vibrating tube method
[4] = refractive index (Na D-line) (dimensionless); xn = mol fraction of the nth substance listed; settings: 298.15 K, 101 kPa, Liquid, ATAGO RX-5000 refractometer with Hero Therm thermostat

CCCCCCCCn1cc[n+](C)c1.O=S(=O)([N-]S(=O)(=O)C(F)(F)F)C(F)(F)F
Settings | mass density [kg/m3] | refractive index | viscosity [mPa·s]
[1] | 1320.59 | – | 92.51
[2] | – | 1.43298 | –

CCCCCCCCn1cc[n+](C)c1.O=S(=O)([N-]S(=O)(=O)C(F)(F)F)C(F)(F)F + CC(=O)OC(C)C
Settings | mass density, [3] [kg/m3] | refractive index, [4] | viscosity, [3] [mPa·s]
x2 = 0.0415 | 1314.43 | 1.43222 | 81.81
x2 = 0.0984 | 1305.77 | 1.4313 | 70.33
x2 = 0.1644 | 1294.72 | 1.43009 | 58.16
x2 = 0.2055 | 1287.14 | 1.42923 | 51.89
x2 = 0.301 | 1267.67 | 1.42702 | 38.25
x2 = 0.3956 | 1244.68 | 1.42458 | 26.57
x2 = 0.4996 | 1214.35 | 1.42091 | 17.09
x2 = 0.5837 | 1184.33 | 1.41742 | 11.42
x2 = 0.7048 | 1129.29 | 1.41083 | 5.785
x2 = 0.8036 | 1068.65 | 1.40324 | 2.993
x2 = 0.8991 | 988.94 | 1.39275 | 1.389

CCCCCCCCn1cc[n+](C)c1.O=S(=O)([N-]S(=O)(=O)C(F)(F)F)C(F)(F)F + CC(C)O
Settings | mass density, [3] [kg/m3] | refractive index, [4] | viscosity, [3] [mPa·s]
x2 = 0.0331 | 1316.64 | 1.43251 | 85.24
x2 = 0.066 | 1312.4 | 1.43205 | 78.1
x2 = 0.105 | 1307.22 | 1.43149 | 71.48
x2 = 0.1823 | 1295.84 | 1.43031 | 60.13
x2 = 0.2732 | 1280.29 | 1.42862 | 47.98
x2 = 0.3284 | 1269.48 | 1.42746 | 39.87
x2 = 0.4097 | 1250.88 | 1.42551 | 33.13
x2 = 0.5055 | 1224.13 | 1.42269 | 24.79
x2 = 0.5848 | 1196.42 | 1.41988 | 19.09
x2 = 0.6747 | 1155.99 | 1.41568 | 13.79
x2 = 0.7832 | 1087.54 | 1.40856 | 8.606
x2 = 0.8966 | 972.52 | 1.39645 | 4.615

CC(=O)OC(C)C [1-methylethyl ethanoate]
Settings | Normal boiling temperature [°C] | mass density [kg/m3] | refractive index | viscosity [mPa·s]
[1] | 88.30 | 866.21 | – | 0.481
[2] | – | – | 1.3748 | –

CC(=O)OC(C)C [1-methylethyl ethanoate] + CC(C)O
Settings | mass density, [3] [kg/m3] | refractive index, [4] | viscosity, [3] [mPa·s]
x1 = 0.1199 | 793.54 | 1.37417 | 1.278
x1 = 0.2041 | 802.03 | 1.37374 | 1.021
x1 = 0.294 | 810.58 | 1.37344 | 0.812
x1 = 0.3802 | 818.32 | 1.3733 | 0.722
x1 = 0.4855 | 827.39 | 1.37331 | 0.635
x1 = 0.5877 | 835.68 | 1.37339 | 0.563
x1 = 0.7138 | 845.52 | 1.37369 | 0.538
x1 = 0.7681 | 849.64 | 1.37383 | 0.515
x1 = 0.8777 | 857.56 | 1.37419 | 0.5

CC(C)O [propan-2-ol]
Settings | Normal boiling temperature [°C] | mass density [kg/m3] | refractive index | viscosity [mPa·s]
[1] | 82.22 | 780.88 | – | 2.073
[2] | – | – | 1.37502 | –
